Experimental data as given in ChEMBL document CHEMBL1201862, “PubChem BioAssay data set” (2004).
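All cell lines were grown in 96-well plates and treated with compound for 48 hours. GI50: concentration for 50% inhibition of growth.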 Activity calls are given as the source filed them. Rule as the data show it: active = GI50 up to about 1.1 µM and inactive = higher.

What was measured:
Test in all cases: NCI-60 cell line screen, 48 h
OVCAR-4 = tested on: OVCAR-4
SF-295 = tested on: SF-295
UACC-62 = tested on: UACC-62
K562 = tested on: K562
SK-MEL-2 = tested on: SK-MEL-2
T47D = tested on: T47D
PC-3 = tested on: PC-3
UO-31 = tested on: UO-31
HCC 2998 = tested on: HCC 2998
SF-539 = tested on: SF-539
SK-OV-3 = tested on: SK-OV-3
CAKI-1 = tested on: CAKI-1
BT-549 = tested on: BT-549
DLD-1 = tested on: DLD-1
M14 = tested on: M14
NCI-H460 = tested on: NCI-H460
Malme-3M = tested on: Malme-3M
UACC-257 = tested on: UACC-257
KM12 = tested on: KM12
HL-60 = tested on: HL-60

Measured: GI50

O=C(c1nc2ccc([N+](=O)[O-])cc2nc1O)C(O)c1ccc2c(c1)OCO2 (stereo not given)
inactive: OVCAR-4 > 100 µM | SF-295 > 52.5 µM | UACC-62 96.4 µM | K562 > 78.9 µM | SK-MEL-2 > 100 µM | T47D > 100 µM | PC-3 > 100 µM | UO-31 > 100 µM | HCC 2998 > 100 µM | SF-539 > 100 µM | SK-OV-3 > 100 µM | CAKI-1 > 96.2 µM | BT-549 > 100 µM | DLD-1 > 100 µM | M14 > 94 µM | NCI-H460 > 100 µM | Malme-3M > 100 µM | UACC-257 > 100 µM | KM12 > 51.2 µM | HL-60 > 39.1 µM
